From patent publication US20250034170A1, “SMALL MOLECULE MODULATORS OF GLUCOCEREBROSIDASE ACTIVITY AND USES THEREOF” (Vanqua Bio, Inc., priority 2021, published 2025)

Biological target: T1, GCase (Homo sapiens, UniProt P04062)
T1 construct: endogenous in cells; host or cells: HeLa cells
T1 sequence (P04062 40-536): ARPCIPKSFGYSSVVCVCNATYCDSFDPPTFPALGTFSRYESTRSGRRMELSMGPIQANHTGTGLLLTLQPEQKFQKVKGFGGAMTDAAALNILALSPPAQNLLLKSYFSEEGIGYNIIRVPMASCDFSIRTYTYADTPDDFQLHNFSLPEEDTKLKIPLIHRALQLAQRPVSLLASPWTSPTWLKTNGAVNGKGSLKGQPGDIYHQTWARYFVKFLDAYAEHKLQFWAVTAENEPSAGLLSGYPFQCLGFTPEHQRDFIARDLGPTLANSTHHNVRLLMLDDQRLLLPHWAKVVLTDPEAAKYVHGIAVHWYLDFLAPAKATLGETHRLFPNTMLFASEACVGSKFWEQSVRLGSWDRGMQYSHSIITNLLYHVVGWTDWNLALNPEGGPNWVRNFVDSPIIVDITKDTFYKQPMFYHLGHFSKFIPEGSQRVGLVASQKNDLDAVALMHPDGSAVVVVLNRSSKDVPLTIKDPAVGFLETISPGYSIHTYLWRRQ
Assay: activation of GCase in a live cell PFB assay in HELA cells
Format: cell-based
Settings: activation of GCase, EC50 ranges
Protocol: Exemplary compounds were evaluated for activation of GCase in a live cell PFB assay in HELA cells (essentially as described in Ysselstein et al., “LRRK2 kinase activity regulates lysosomal glucocerebrosidase in neurons derived from Parkinson's disease patients” Nature Communications (2019) 10:5570). […] EC50 ranges: A: <10 μM; B: >10-50 μM; C: >50-100 μM; D: >100 μM.

Cc1nc(N2CC3(CCN(c4cnc5cnn(C6COC6)c5n4)C3)C2)cc(C(F)(F)F)n1 [Cmpd 1063] and CCc1nn(C2COC2)c2nc(N3CCC4(CN(c5cc(C(F)(F)F)nc(C)n5)C4)C3)cnc12 [Cmpd 1065] fall in the same range of EC50: 10 to 50 µM for the first, 10 to 50 µM for the second.

CCc1nn(CC(F)F)c2nc(N3CCC4(CN(c5cc(C(F)(F)F)nc(C)n5)C4)C3)cnc12 [Cmpd 1064] and COc1nn(CC(F)F)c2nc(N3CCC4(CN(c5cc(C(F)(F)F)nc(C)n5)C4)C3)cnc12 [Cmpd 1095] fall in the same range of EC50: 10 to 50 µM for the first, 10 to 50 µM for the second.

First: CCc1nn(CC(F)F)c2nc(N3CCC4(CN(c5cc(C(F)(F)F)nc(C)n5)C4)C3)ncc12 [Cmpd 1066]
Second: CCc1nn(C2COC2)c2nc(N3CCC4(CN(c5cc(C(F)(F)F)nc(C)n5)C4)C3)ncc12 [Cmpd 1067]
The EC50 of the first is higher: 10 to 50 µM for the first, less than 10 µM for the second.

First: CCc1nn(CC(F)F)c2nc(N3CCC4(CN(c5ccnc(C(F)(F)F)c5)C4)C3)cnc12 [Cmpd 1068]
Second: CCc1nn(CC(F)F)c2nc(N3CCC4(CN(c5ccnc(C(F)(F)F)c5)C4)C3)ncc12 [Cmpd 1071]
The EC50 of the first is higher: 10 to 50 µM for the first, less than 10 µM for the second.

First: CCc1nn(C2COC2)c2nc(N3CCC4(CN(c5ccnc(C(F)(F)F)c5)C4)C3)cnc12 [Cmpd 1069]
Second: CCc1nn(C2COC2)c2nc(N3CCC4(CN(c5ccnc(C(F)(F)F)c5)C4)C3)ncc12 [Cmpd 1070]
The EC50 of the first is higher: 10 to 50 µM for the first, less than 10 µM for the second.

Compared with FC(F)Cn1ncc2cnc(N3CCC4(CN(c5ccnc(C(F)(F)F)c5)C4)C3)cc21 [Cmpd 1072], FC(F)Cn1ncc2ccc(N3CCC4(CN(c5ccnc(C(F)(F)F)c5)C4)C3)nc21 [Cmpd 1073] is lower in EC50: 10 to 50 µM for the first, less than 10 µM for the second. The second is the more potent here.

Compared with CCn1c(=O)n(CC(F)F)c2nc(N3CCC4(CN(c5cc(C(F)(F)F)nc(C)n5)C4)C3)cnc21 [Cmpd 1074], CCn1c(=O)n(CC(F)F)c2ncc(N3CCC4(CN(c5cc(C(F)(F)F)nc(C)n5)C4)C3)nc21 [Cmpd 1075] is higher in EC50: less than 10 µM for the first, 10 to 50 µM for the second.

Compared with Cc1cc(N2CC3(CCN(c4ncc5cnn(CC(C)(F)F)c5n4)C3)C2)nc(C(F)(F)F)n1 [Cmpd 1076], Cc1cc(N2CC3(CCN(c4ncc5c(C)nn(CC(C)(F)F)c5n4)C3)C2)nc(C(F)(F)F)n1 [Cmpd 1130] is lower in EC50: 10 to 50 µM for the first, less than 10 µM for the second.

Cc1nc(N2CC3(CCN(c4cnc5c(n4)n(CC(F)F)c(=O)n5C)C3)C2)cc(C(F)(F)F)n1 [Cmpd 1077] and Cc1nc(N2CC3(CCN(c4cnc5c(n4)n(C)c(=O)n5CC(F)F)C3)C2)cc(C(F)(F)F)n1 [Cmpd 1078] cannot be ordered by EC50: less than 10 µM for the first, less than 10 µM for the second.

Cc1nc(N2CC[C@]3(CCN(c4ncc5c(C)nn(C6COC6)c5n4)C3)C2)cc(C(F)(F)F)n1 [Cmpd 1079] and Cc1nc(N2CC[C@@]3(CCN(c4ncc5c(C)nn(C6COC6)c5n4)C3)C2)cc(C(F)(F)F)n1 [Cmpd 1080] fall in the same range of EC50: 10 to 50 µM for the first, 10 to 50 µM for the second.

CCn1c(=O)n(CC(F)F)c2nc(N3CCC4(CN(c5cc(C(F)(F)F)nc(C)n5)C4)C3)ncc21 [Cmpd 1081] and Cc1nc(N2CC3(CCN(c4ncc5c(n4)n(CC(F)F)c(=O)n5C)C3)C2)cc(C(F)(F)F)n1 [Cmpd 1082] cannot be ordered by EC50: less than 10 µM for the first, less than 10 µM for the second.

First: CCn1c(=O)n(CC(F)F)c2nc(N3CCC4(C3)CN(c3cnc(C)nc3C(F)(F)F)C4)ncc21 [Cmpd 1083]
Second: CCn1c(=O)n(CC(F)F)c2nc(N3CCC4(CC3)CCN(c3cnc(C(F)(F)F)nc3C)C4)cnc21 [Cmpd 1085]
The EC50 of the first is higher: 10 to 50 µM for the first, less than 10 µM for the second.

Cc1nc(N2CC3(CCN(c4nc5c(cnn5CC(F)F)c(=O)n4C)C3)C2)cc(C(F)(F)F)n1 [Cmpd 1084] and CCn1c(N2CCC3(CN(c4cc(C(F)(F)F)nc(C)n4)C3)C2)nc2c(cnn2CC(F)F)c1=O [Cmpd 1103] cannot be ordered by EC50: less than 10 µM for the first, less than 10 µM for the second.

First: Cc1nc(C(F)(F)F)ncc1N1CCC2(CCN(c3nc4c(cnn4CC(F)F)c(=O)n3C)CC2)C1 [Cmpd 1086]
Second: Cc1cc(N2CCC3(CCN(c4nc5c(cnn5CC(F)F)c(=O)n4C)CC3)C2)nc(C(F)(F)F)n1 [Cmpd 1087]
The EC50 of the first is higher: 10 to 50 µM for the first, less than 10 µM for the second.

First: CC(F)(F)c1ncc(N2CC3(CCN(c4cnc5cnn(CC(F)F)c5n4)C3)C2)cn1 [Cmpd 1088]
Second: CCc1nc(N2CC3(CCN(c4cnc5cnn(CC(F)F)c5n4)C3)C2)cc(C(F)(F)F)n1 [Cmpd 1089]
The EC50 of the first is lower: less than 10 µM for the first, 10 to 50 µM for the second.

FC(F)(F)c1cc(N2CC3(CCN(c4cnc5cnn(C6CCOCC6)c5n4)C3)C2)ccn1 [Cmpd 1090] and FC(F)(F)c1cc(N2CC3(CCN(c4cnc5cnn([C@@H]6CCOC6)c5n4)C3)C2)ccn1 [Cmpd 1091] cannot be ordered by EC50: greater than 100 µM for the first, greater than 100 µM for the second.

Going from FC(F)(F)c1cc(N2CC3(CCN(c4cnc5cnn([C@H]6CCOC6)c5n4)C3)C2)ccn1 [Cmpd 1092] to CC(C)Cn1ncc2ncc(N3CCC4(CN(c5ccnc(C(F)(F)F)c5)C4)C3)nc21 [Cmpd 1126], the EC50 falls from greater than 100 µM to less than 10 µM.

First: COc1nn(CC(F)F)c2nc(N3CCC4(C3)CN(c3cnc(C(F)(F)F)nc3C)C4)cnc12 [Cmpd 1093]
Second: COc1nn(CC(F)F)c2nc(N3CCC4(CC3)CCN(c3cnc(C(F)(F)F)nc3C)C4)cnc12 [Cmpd 1094]
The EC50 of the first is higher: 10 to 50 µM for the first, less than 10 µM for the second.

COc1nn(CC(F)F)c2nc(N3CCC4(CCN(c5cc(C(F)(F)F)nc(C)n5)C4)CC3)cnc12 [Cmpd 1096] and COc1nn(CC(F)F)c2nc(N3CCC4(CCN(c5cc(C)nc(C(F)(F)F)n5)C4)CC3)cnc12 [Cmpd 1098] cannot be ordered by EC50: less than 10 µM for the first, less than 10 µM for the second.

Compared with COc1nn(CC(F)F)c2nc(N3CCC4(CN(c5cc(C)nc(C(F)(F)F)n5)C4)C3)cnc12 [Cmpd 1097], Cc1cc(N2CC3(CCN(c4cnc5c(C)nn(CC(C)(F)F)c5n4)C3)C2)nc(C(F)(F)F)n1 [Cmpd 1129] is lower in EC50: 10 to 50 µM for the first, less than 10 µM for the second.

Compared with CCn1c(N2CCC3(CCN(c4ccnc(C(F)(F)F)c4)C3)CC2)nc2c(cnn2CC(F)F)c1=O [Cmpd 1099], CCn1c(N2CCC3(CCN(c4ccnc(C(F)(F)F)c4)C3)C2)nc2c(cnn2CC(F)F)c1=O (stereo not shown) [Cmpd 1100] is higher in EC50: less than 10 µM for the first, 10 to 50 µM for the second.

CCn1c(N2CCC3(CN(c4ccnc(C(F)(F)F)c4)C3)C2)nc2c(cnn2CC(F)F)c1=O [Cmpd 1101] and CCCn1c(N2CCC3(CN(c4cc(C(F)(F)F)nc(C)n4)C3)C2)nc2c(cnn2CC(F)F)c1=O [Cmpd 1111] fall in the same range of EC50: 10 to 50 µM for the first, 10 to 50 µM for the second.

CCn1c(N2CCC3(CCN(c4cc(C(F)(F)F)nc(C)n4)C3)CC2)nc2c(cnn2CC(F)F)c1=O [Cmpd 1102] and CCCn1c(N2CCC3(CCN(c4cc(C(F)(F)F)nc(C)n4)C3)CC2)nc2c(cnn2CC(F)F)c1=O [Cmpd 1106] cannot be ordered by EC50: less than 10 µM for the first, less than 10 µM for the second.

First: Cc1nn(CC(F)F)c2nc(N3CCC4(CCN(c5ccnc(C(F)(F)F)c5)C4)CC3)n(C)c(=O)c12 [Cmpd 1104]
Second: CCn1c(N2CCC3(CCN(c4cc(C)nc(C(F)(F)F)n4)C3)CC2)nc2c(cnn2CC(F)F)c1=O [Cmpd 1105]
The EC50 of the first is higher: 10 to 50 µM for the first, less than 10 µM for the second.

Cc1nc(N2CCC3(CCN(c4nc5c(cnn5CC(F)F)c(=O)n4CC(C)C)CC3)C2)cc(C(F)(F)F)n1 [Cmpd 1107] and Cc1nc(N2CC3(CCN(c4nc5c(cnn5CC(F)F)c(=O)n4CC(C)C)C3)C2)cc(C(F)(F)F)n1 [Cmpd 1112] cannot be ordered by EC50: less than 10 µM for the first, less than 10 µM for the second.

Compared with Cc1nc(N2CCC3(CCN(c4nc5c(cnn5CC(F)F)c(=O)n4CC4CC4)CC3)C2)cc(C(F)(F)F)n1 [Cmpd 1108], Cc1nc(N2CC3(CCN(c4nc5c(cnn5CC(F)F)c(=O)n4CC4CC4)C3)C2)cc(C(F)(F)F)n1 [Cmpd 1113] is higher in EC50: less than 10 µM for the first, 10 to 50 µM for the second. The first is the more potent here.

First: CCn1c(N2CCC3(CCN(c4cc(C(F)(F)F)nc(C)n4)C3)CC2)nc2c(cnn2C2COC2)c1=O [Cmpd 1110]
Second: CCn1c(N2CCC3(CN(c4cc(C(F)(F)F)nc(C)n4)C3)C2)nc2c(cnn2C2COC2)c1=O [Cmpd 1115]
The EC50 of the first is higher: 50 to 100 µM for the first, 10 to 50 µM for the second.

First: CCn1c(N2CCC3(CN(c4cc(C(F)(F)F)nc(C)n4)C3)C2)nc2c(cnn2CC(F)(F)F)c1=O [Cmpd 1114]
Second: Cc1nc(N2CC3(CCN(c4cnc5cnn(CC(C)(F)F)c5n4)C3)C2)cc(C(F)(F)F)n1 [Cmpd 1117]
The EC50 of the first is lower: less than 10 µM for the first, greater than 100 µM for the second. The first is the more potent here.

CC(F)(F)Cn1ncc2ncc(N3CCC4(CN(c5ccnc(C(F)(F)F)c5)C4)C3)nc21 [Cmpd 1116] and CC(C)(C)Cn1ncc2ncc(N3CCC4(CN(c5ccnc(C(F)(F)F)c5)C4)C3)nc21 [Cmpd 1125] fall in the same range of EC50: 10 to 50 µM for the first, 10 to 50 µM for the second.

Cc1nc(N2CC3(CCN(c4cncc(-c5ccn(CC(F)F)n5)n4)C3)C2)cc(C(F)(F)F)n1 [Cmpd 1118] and Cc1nc(N2CC3(CCN(c4cncc(-c5ccn(CC(F)(F)F)n5)n4)C3)C2)cc(C(F)(F)F)n1 [Cmpd 1120] cannot be ordered by EC50: greater than 100 µM for the first, greater than 100 µM for the second.

First: Cc1nc(N2CC3(CCN(c4cncc(-c5ccnn5CC(F)F)n4)C3)C2)cc(C(F)(F)F)n1 [Cmpd 1119]
Second: Cc1nc(N2CC3(CCN(c4cncc(-c5ccnn5CC(F)(F)F)n4)C3)C2)cc(C(F)(F)F)n1 [Cmpd 1121]
The EC50 of the first is lower: 10 to 50 µM for the first, greater than 100 µM for the second. The first is the more potent here.

Cc1nc(N2CC[C@]3(CCN(c4cnc5c(C)nn(C6COC6)c5n4)C3)C2)cc(C(F)(F)F)n1 [Cmpd 1122] and Cc1nc(N2CC[C@@]3(CCN(c4cnc5c(C)nn(C6COC6)c5n4)C3)C2)cc(C(F)(F)F)n1 [Cmpd 1123] fall in the same range of EC50: 10 to 50 µM for the first, 10 to 50 µM for the second.

Compared with Cc1nc(N2CC3(CCN(c4cncc(-c5cnn(CC(F)F)c5)n4)C3)C2)cc(C(F)(F)F)n1 [Cmpd 1124], Cc1nc(N2CC3(CCN(c4cnc5c(C)nn(CC(C)(F)F)c5n4)C3)C2)cc(C(F)(F)F)n1 [Cmpd 1128] is lower in EC50: 50 to 100 µM for the first, 10 to 50 µM for the second. The second is the more potent here.

In the case of Cc1nc(N2CC3(CCN(c4ncc5c(C)nn(CC(C)(F)F)c5n4)C3)C2)cc(C(F)(F)F)n1 [Cmpd 1127], the EC50 is reported as less than 10 µM.
